# In patent publication US20250312468A1, “ANTI-PROTAC ANTIBODIES AND COMPLEXES” (Merck Patent GmbH, priority 2021, published 2025):
# How the values were obtained:
# MIC2 = assay: SPR binding of PROTACs to immobilized antibody MIC2; conditions: MIC2, 1:1 kinetic binding model
# Protocol: The binding affinities of hit antibodies MIC1 and MIC2 to a diverse set of VH032-based PROTACs (FIGS. 8A-8B) was determined by surface plasmon resonance (SPR) in a Biacore T200 instrument. The running buffer consist of PBS, 0.05% Tween-20, 2% DMSO and temperature and flow rate were set to 30° C. and 30 μL/min, respectively. The assay setup is depicted exemplarily in FIG. 7A. CM5 sensor chips were coated with antibody (=ligand; 2500 RU) using standard EDC/NHS chemistry. PROTACs (=analytes) were serially diluted (1 μM-1.9 nM) in running buffer, injected to the instrument in consecutive runs and were captured by the antibody resulting in an increase of the corresponding SPR response. After the association step (300 s), running buffer was injected for 600 s and the PROTAC dissociated from the antibody leading to signal decrease. After each run, residual bound PROTAC was removed from the immobilized antibody by injection of 10 mM glycine/HCl, pH 1.5 for 2×30 s regenerating the antibody for the next association and dissociation cycle. To compensate for matrix effects, the measured SPR response signal was subtracted by the analyte response to an inactivated (EDC/NHS, ethanol amine) reference surface omitting the ligand. Furthermore, a DMSO solvent correction was performed and analyte response was subtracted by the running buffer signal. The corrected response was fitted by a 1:1 kinetic binding model yielding the on- (kon) and off-rate (koff) of the PROTAC, as well as its dissociation constant (KD).
# CD33xMIC10 = assay: SPR affinity of VHH clone (antibody fusion) to PROTACs; conditions: CD33xMIC10 immobilized, 25° C., read-out: KD [M] for antibody binding to PROTAC
# Protocol: (§1) The kinetic and affinity parameters of protein-PROTAC interactions were evaluated by SPR. The anti-PROTAC VHH clones MIC5-MIC14 were immobilized as CD33 or CLL1 antibody fusion (the manufacturing of fusion proteins and the used linker is described in chapter 7.9) onto a CM5 (Series S) sensor chip via the standard amine coupling procedure, at 25° C. Prior to immobilization, the carboxymethylated surface of the chip was activated with 400 mM 1-ethyl-3-(3-dimethylaminopropyl)-carbodiimide and 100 mM N-hydroxysuccinimide for 7 min. Hit anti-PROTAC VHH as CD33 and CLL1 antibody fusions were diluted to 10 μg/ml in 10 mM Acetate at pH 4.5 and immobilized on the activated surface chip for 7 min, in order to reach 3,000 to 6,000 response units (RU). The remaining activated carboxymethylated groups were blocked with a 10 min injection of 1 M ethanolamine pH 8. HBS-N, which consists of 10 mM HEPES pH 7.4 and 150 mM NaCl, was used as the background buffer during immobilization. PROTACs were prediluted in DMSO, diluted 1:50 in running buffer (12 mM phosphate pH 7.4, 137 mM NaCl, 2.7 mM KCl, 0.05% Tween20, 2% DMSO) and injected at ten different concentrations using two-fold dilution series, from 1 μM to 0.002 μM. A DMSO solvent correction (1%-3%) was performed to account for variations in bulk signal and to achieve high-quality data. Interaction analysis cycles consisted of a 300 sec sample injection (30 μL/min; association phase) followed by 900 sec of buffer flow (dissociation phase).
# (§2) All sensorgrams were processed by first subtracting the binding response recorded from the control surface (reference flow-channel), followed by subtracting of the buffer blank injection from the active flow-channel (target protein immobilized). All datasets were fit to a simple 1:1 Langmuir interaction model to determine the kinetic rate constants. Experiments were performed on a Biacore 8k+ (Cytiva, Uppsala, Sweden) at 25° C. and the interactions were evaluated using the provided Biacore Insight Evaluation software.
# CD33xMIC11 = assay: as above; conditions: CD33xMIC11 immobilized, 25° C., read-out: KD [M] for antibody binding to PROTAC
# Protocol: as §1, §2
# CD33xMIC13 = assay: as above; conditions: CD33xMIC13 immobilized, 25° C., read-out: KD [M] for antibody binding to PROTAC
# Protocol: as §1, §2
# CD33xMIC14 = assay: as above; conditions: CD33xMIC14 immobilized, 25° C., read-out: KD [M] for antibody binding to PROTAC
# Protocol: as §1, §2
# CD33xMIC5 = assay: as above; conditions: CD33xMIC5 immobilized, 25° C., read-out: KD [M] for antibody binding to PROTAC
# Protocol: as §1, §2
# CD33xMIC6 = assay: as above; conditions: CD33xMIC6 immobilized, 25° C., read-out: KD [M] for antibody binding to PROTAC
# Protocol: as §1, §2
# CD33xMIC12 = assay: as above; conditions: CD33xMIC12 immobilized, 25° C., read-out: KD [M] for antibody binding to PROTAC
# Protocol: as §1, §2
# CD33xMIC7 = assay: as above; conditions: CD33xMIC7 immobilized, 25° C., read-out: KD [M] for antibody binding to PROTAC
# Protocol: as §1, §2
# CD33xMIC8 = assay: as above; conditions: CD33xMIC8 immobilized, 25° C., read-out: KD [M] for antibody binding to PROTAC
# Protocol: as §1, §2
# CD33xMIC9 = assay: as above; conditions: CD33xMIC9 immobilized, 25° C., read-out: KD [M] for antibody binding to PROTAC
# Protocol: as §1, §2
# [1] = PK study of CD33-based VHH fusions and PAX in C57BL/6N mice; format: in vivo, mouse; conditions: analyte tAntibody, 30 mg/kg i.v., mean
# Protocol: Additionally, the PAX CD33xMIC5+GNE987 and CD33xMIC7+GNE987 were generated with a theoretical loading of 100% and investigated in PK studies conducted in C57BL/6N inbred mice (N=2 males and females for each group) provided by Charles River Laboratories Italia, Calco, Italy. The 7-8-week-old mice received 30 mg/kg (corresponding to 0.38 mg/kg PROTAC) of CD33xMIC5+GNE987 and CD33xMIC7+GNE987, CD33 antibody alone, CD33xMIC5 or CD33xMIC7 as single dose, that was intravenously injected into the tail vein. Samples have been serially collected from all animals using a microsampling technique ([…] for each blood withdrawal). After administration, two blood samples were taken on the first day and 7 during the three weeks later. Each sample was collected in pre-chilled (0-4° C.) Minivette POCT EDTA tube, transferred in Microvette CB300 EDTA and centrifuged at 2500×g for 10 min at 4° C. The obtained plasma was transferred into a new vial and immediately stored at −80° C. until further analyses. The PK study, animal handling and experimentation, was conducted in accordance with the Italian D.Lvo. 2014/26 and Directive 2010/63/EU. The study was performed at the Instituto di Ricerche Biomediche Antoine Marxer, Colleretto Giacosa, Italy. The institute is fully authorized by the Italian Ministry of Health.
# The total antibody concentration was determined by ligand binding assay (LBA) based on the Meso Scale Diagnostics technology (MSD, LLC., Rockville, MD). All incubation steps were performed at 22° C. with gentle agitation. All washing steps (200 μL/well) were performed with PBS-T, containing PBS pH 7.4 and 0.01% Tween 20, using the plate washer ELx405 (BioTek instruments Inc., Winooski, VT). First, 2.5 μg/mL biotin-SP-conjugated AffiniPure goat anti-human IgG, Fcγ fragment specific (Jackson ImmunoResearch Europe Ltd., JIR, Cambridgeshire, United Kingdom, #109-065-098) was coated on MSD GOLD 96-well Streptavidin QUICKPLEX Plates (MSD, #L55SA) for 2 h. Afterwards, plates were washed three times. Plasma samples, standards and quality controls were serially diluted in dilution buffer, consisting of PBS pH 7.4, 0.05% Tween 20 and 3.0% (w/v) BSA, and incubated on the plates for 1 h. The plates were washed again and incubated for 1 h with 0.6 μg/ml mouse anti-human IgG, F(ab′)2 fragment specific (JIR, #209-005-097), previously labeled with MSD GOLG SULFO-TAG (MSD, #R31AA-1) according to the manufacturing procedure. After a final washing step, 150 μL of 2×MSD Read Buffer T with surfactant (MSD, #R92TC) was added to each well and plates were read on a MESO Quickplex SQ120 plate reader (MSD). The Software Watson LIMS (Version 7.5, ThermoFisher Scientific Inc.) was used to fit the standard curve with a 5PL (Marquart) equations, weighting factor 1/Y2, and to calculate the total mAb concentration of the plasma samples. The lower limit of quantification (LLOQ) was 50 ng/ml. The concentration of MSC2734242 was determined by liquid chromatography tandem mass spectrometry (LC-MS/MS) using a SCIEX 5500 triple quadrupole with Turbo Ion Spray source (ITS) in positive modality (SCIEX, Redwood City, CA, USA). Chromatographic separation was achieved using a Waters ACQUITY UPLC BEH (C18, 2.1×50 mm, 1.7 μm) column, mounted in a Waters ACQUITY I-class UPLC system (Milford, MA, USA), configured with a 100 μL extension loop. […]
compound,measurement,setting,value
Cc1ncsc1-c1ccc(CNC(=O)[C@@H]2C[C@@H](O)CN2C(=O)[C@@H](NC(=O)C2(F)CC2)C(C)(C)C)c(OCCOc2ccc(CN3CCN(c4cc(-c5ccccc5O)nnc4N)CC3)cc2)c1 [ACBI1],Kd,MIC2,> 1000 nM
same,Kd,CD33xMIC10,8.5e-06 M
same,Kd,CD33xMIC11,0.00011 M
same,Kd,CD33xMIC13,9.3e-05 M
same,Kd,CD33xMIC14,9.3e-07 M
same,Kd,CD33xMIC5,2.5e-06 M
same,Kd,CD33xMIC6,6.5e-06 M
CC(=O)N[C@H](C(=O)N1C[C@H](O)C[C@H]1C(=O)NCc1ccc(-c2scnc2C)cc1)C(C)(C)SCCCCCCNC(=O)C[C@@H]1N=C(c2ccc(Cl)cc2)c2c(sc(C)c2C)-n2c(C)nnc21 [AT1],Kd,MIC2,6 nM
same,koff,MIC2,NM/1.90E−03 1/s
same,kon,MIC2,NM/3.10E+05 1/Ms
same,Kd,CD33xMIC10,2.4e-09 M
same,Kd,CD33xMIC11,1.9e-10 M
same,Kd,CD33xMIC12,1.7e-09 M
same,Kd,CD33xMIC13,1.7e-09 M
same,Kd,CD33xMIC14,2.9e-09 M
same,Kd,CD33xMIC5,2.4e-09 M
same,Kd,CD33xMIC6,7.3e-09 M
same,Kd,CD33xMIC7,2.1e-09 M
same,Kd,CD33xMIC8,5.2e-09 M
same,Kd,CD33xMIC9,1.4e-09 M
CC(=O)N1c2ccc(-c3ccc(C(=O)NCCOCCOCCOCC(=O)N[C@H](C(=O)N4C[C@H](O)C[C@H]4C(=O)NCc4ccc(-c5scnc5C)cc4)C(C)(C)C)cc3)cc2[C@H](Nc2ccc(Cl)cc2)C[C@@H]1C [MZP54],Kd,MIC2,0.42 nM
same,koff,MIC2,NM/8.40E−05 1/s
same,kon,MIC2,NM/2.00E+05 1/Ms
CC(=O)N1c2ccc(-c3ccc(C(=O)NCCOCCOCCOCCOCC(=O)N[C@H](C(=O)N4C[C@H](O)C[C@H]4C(=O)NCc4ccc(-c5scnc5C)cc4)C(C)(C)C)cc3)cc2[C@H](Nc2ccc(Cl)cc2)C[C@@H]1C [MZP55],Kd,MIC2,0.63 nM
same,koff,MIC2,NM/7.40E−05 1/s
same,kon,MIC2,NM/1.20E+05 1/Ms
Cc1nc(Nc2ncc(C(=O)Nc3c(C)cccc3Cl)s2)cc(N2CCN(C(=O)CCCCCCC(=O)N[C@H](C(=O)N3C[C@H](O)C[C@H]3C(=O)NCc3ccc(-c4scnc4C)cc3)C(C)(C)C)CC2)n1 [SIAIS178],Kd,MIC2,0.41 nM
same,koff,MIC2,NM/4.25E−05 1/s
same,kon,MIC2,NM/1.05E+05 1/Ms
same,Kd,CD33xMIC7,8.3e-09 M
COc1cc(-c2cn(C)c(=O)c3cnccc23)cc(OC)c1CN1CCN(CCCCCOc2cc(-c3scnc3C)ccc2CNC(=O)[C@@H]2C[C@@H](O)CN2C(=O)[C@@H](NC(=O)C2(F)CC2)C(C)(C)C)CC1 [VZ185],Kd,MIC2,> 1000 nM
CCCOc1cccc(Oc2cc3c(cc2NS(=O)(=O)c2cccc(C(=O)NCCOCCOCCOCC(=O)N[C@H](C(=O)N4C[C@H](O)C[C@H]4C(=O)NCc4ccc(-c5scnc5C)cc4)C(C)(C)C)c2)n(C)c(=O)n3C)c1 [dTRIM24],Kd,MIC2,0.42 nM
same,koff,MIC2,NM/1.64E−04 1/s
same,kon,MIC2,NM/3.92E+05 1/Ms
"CD33 Ab: parental CD33-binding antibody (gemtuzumab CDRs, IgG4) without VHH",AUC0-inf,[1],219000 µg·h/mL
same,Cl,[1],3.36 mL/day/kg
same,Cmax,[1],810 µg/mL
same,Vss,[1],0.0742 L/kg
same,t½,[1],237.0 h
